The values that follow come from US8741892B2, “Compounds” (Boehringer Ingelheim International GmbH, priority 2011, dated 2014).

This assay deals with T1, human recombinant mGluR5 (Homo sapiens, UniProt P41594).
T1 construct: expressed in transfected cells; host or cells: HEK 293
T1 sequence (P41594 21-1212): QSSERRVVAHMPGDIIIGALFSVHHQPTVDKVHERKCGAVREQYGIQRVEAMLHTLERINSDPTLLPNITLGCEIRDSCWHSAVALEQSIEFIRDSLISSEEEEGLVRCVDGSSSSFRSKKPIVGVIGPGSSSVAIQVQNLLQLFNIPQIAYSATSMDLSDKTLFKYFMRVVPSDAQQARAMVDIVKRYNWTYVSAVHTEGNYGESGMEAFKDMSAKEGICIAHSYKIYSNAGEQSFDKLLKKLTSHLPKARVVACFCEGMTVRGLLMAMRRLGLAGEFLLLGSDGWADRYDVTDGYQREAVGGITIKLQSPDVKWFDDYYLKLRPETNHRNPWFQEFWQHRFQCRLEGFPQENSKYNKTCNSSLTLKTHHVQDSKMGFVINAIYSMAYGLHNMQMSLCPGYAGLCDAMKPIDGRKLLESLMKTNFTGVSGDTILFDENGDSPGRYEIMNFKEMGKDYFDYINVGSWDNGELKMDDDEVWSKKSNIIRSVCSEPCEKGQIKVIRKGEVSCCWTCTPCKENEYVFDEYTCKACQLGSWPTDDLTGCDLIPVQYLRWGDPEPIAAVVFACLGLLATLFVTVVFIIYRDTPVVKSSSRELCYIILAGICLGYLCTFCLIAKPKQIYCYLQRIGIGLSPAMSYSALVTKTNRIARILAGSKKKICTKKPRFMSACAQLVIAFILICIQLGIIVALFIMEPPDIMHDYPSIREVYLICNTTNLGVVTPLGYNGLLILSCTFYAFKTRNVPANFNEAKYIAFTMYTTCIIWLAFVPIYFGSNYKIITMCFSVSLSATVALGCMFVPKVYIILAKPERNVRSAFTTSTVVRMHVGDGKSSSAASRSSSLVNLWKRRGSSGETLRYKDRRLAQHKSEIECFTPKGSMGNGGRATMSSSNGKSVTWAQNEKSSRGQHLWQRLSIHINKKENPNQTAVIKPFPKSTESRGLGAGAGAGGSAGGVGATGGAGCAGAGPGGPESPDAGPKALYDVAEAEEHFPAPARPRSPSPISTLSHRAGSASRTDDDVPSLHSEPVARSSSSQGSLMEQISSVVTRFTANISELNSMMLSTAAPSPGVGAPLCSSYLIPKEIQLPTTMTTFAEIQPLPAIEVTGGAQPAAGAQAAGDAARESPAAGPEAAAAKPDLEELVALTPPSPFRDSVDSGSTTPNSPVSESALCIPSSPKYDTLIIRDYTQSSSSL
The assay can be described thus: positive modulation of mGluR5, calcium based FLIPR assay. The settings on record: HEK 293 cell line expressing human recombinant mGluR5; EC50 of the modulation from peak Ca fluorescence signal after glutamate at approx. 5% basal stimulation. The essentials:
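HEK 293 cells expressing human recombinant mGluR5, Calcium-4 dye-loaded in Ringer solution pH 7.4. Compound (1% DMSO final) preincubated 5 min, then glutamate at ~5% of maximal effect added; peak Ca2+ fluorescence gives EC50 by nonlinear regression, normalized to DMSO (100%) and 10 μM CDPPB (200%) controls.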
`Cc1cc(-c2cc(CC(C)C)n(CC(=O)N3CCc4nc(N)sc4CC3)n2)ccc1F` [Example 7.02.120]: the EC50 (commonly the concentration needed to bring the measured effect to its halfway point) amounted to 0.021 µM. Next, `Cc1nc2c(s1)CN(C(=O)Cn1nc(-c3ccc(F)c(C)c3)cc1CC(C)C)C2` [Example 7.02.121]: 0.049 µM; `Cc1nc2c(s1)CCN(C(=O)Cn1nc(-c3ccc(C)c(C)n3)cc1-c1ccccc1)CC2` [Example 7.02.122]: 0.038 µM.

As for `Cc1ccc(-c2cc(-c3ccccc3)n(CC(=O)N3CCc4nc(N)sc4CC3)n2)nc1C` [Example 7.02.123], the EC50 was 0.071 µM.

`Cc1nc2c(s1)CN(C(=O)Cn1nc(-c3ccc(C)c(C)n3)cc1-c1ccccc1)C2` [Example 7.02.124]: the EC50 stood at 0.068 µM. In the case of `CCc1cccc(-c2cc(CC)n(CC(=O)N3Cc4nc(C)sc4C3)n2)c1` [Example 7.02.125], the half-maximal effective concentration (EC50) was determined as 0.253 µM. As to `Cc1nc2c(s1)CCN(C(=O)Cn1nc(-c3cc(C)c(C)cn3)cc1-c1ccccc1)CC2` [Example 7.02.126], the EC50 is 0.068 µM. As to `Cc1cnc(-c2cc(-c3ccccc3)n(CC(=O)N3CCc4nc(N)sc4CC3)n2)cc1C` [Example 7.02.127], the EC50 turned out to be 0.2 µM.

As to `CCc1cccc(-c2cc(CC)n(CC(=O)N3CCc4nc(C)sc4CC3)n2)c1` [Example 7.02.129], the EC50 came out at 0.156 µM.

In the case of `Cc1cc(-c2cc(-c3ccccc3)n(CC(=O)N3CCc4ccsc4CC3)n2)ccc1F` [Example 7.02.130], the half-maximal effective concentration (EC50) is 0.057 µM. For `Cc1cc(-c2cc(-c3ccccc3)n(CC(=O)N3CCc4cccnc4CC3)n2)ccc1F` [Example 7.02.131], the concentration giving a half-maximal response (EC50) came out at 0.008 µM. Regarding `CCc1cc(-c2cc(C)c(F)c(C)c2)nn1CC(=O)N1CCc2nc(C)sc2CC1` [Example 7.02.132], the EC50 was determined as 0.186 µM. Consider `CCc1cc(-c2cc(C)c(F)c(C)c2)nn1CC(=O)N1CCc2nc(N)sc2CC1` [Example 7.02.133], for which the EC50 is 0.276 µM.

Take `Cc1cnc(C2=CCN(C(=O)Cn3nc(-c4ccc(F)c(C)c4)cc3-c3ccccc3)CC2)s1` [Example 7.02.134]: the EC50 is 0.015 µM.

Regarding `CCc1cc(-c2ccc(F)c(C)c2)nn1CC(=O)N1CC=C(c2ncc(C)s2)CC1` [Example 7.02.135], the half-maximal effective concentration (EC50) stood at 0.045 µM. Take `COc1cccc(C2=CCN(C(=O)Cn3nc(-c4ccc(F)c(C)c4)cc3-c3ccccc3)CC2)c1` [Example 7.02.136]: the concentration for a half-maximal effect (EC50) came to 0.141 µM.

Consider `CCc1cc(-c2ccc(F)c(C)c2)nn1CC(=O)N1CC=C(c2cccc(OC)c2)CC1` [Example 7.02.137], for which the 50% effective concentration (EC50) turned out to be 0.352 µM. For the molecule `Nc1nc2c(s1)CCN(C(=O)Cn1nc(-c3cccc(Cl)c3)cc1-c1ccccc1)CC2` [Example 7.02.138], the EC50 came out at 0.044 µM.

On to `Cc1nnc(C2CCN(C(=O)Cn3nc(-c4cccc(Cl)c4)cc3-c3ccccc3)CC2)o1` [Example 7.02.139], for which the concentration for a half-maximal effect (EC50) amounted to 0.101 µM. Next, `Cc1cnc(C2CCN(C(=O)Cn3nc(-c4ccc(F)c(C)c4)cc3-c3ccccc3)CC2)s1` [Example 7.02.140]: 0.051 µM; `CCc1cc(-c2ccc(F)c(C)c2)nn1CC(=O)N1CCC(c2ncc(C)s2)CC1` [Example 7.02.141]: 0.138 µM.

Take `Cc1cnc(C2=CCN(C(=O)Cn3nc(-c4cccc(Cl)c4)cc3-c3ccccc3)CC2)o1` [Example 7.02.142]: the EC50 worked out at 0.027 µM. Next, `Cc1nc2c(s1)CN(C(=O)Cn1nc(-c3cccc(Cl)c3)cc1-c1ccccc1)C2` [Example 7.02.143]: 0.048 µM; `Cc1cnc(C2CCN(C(=O)Cn3nc(-c4cccc(Cl)c4)cc3-c3ccccc3)CC2)o1` [Example 7.02.144]: 0.068 µM. For `Cc1nc2c(s1)CCN(C(=O)Cn1nc(-c3cccc(Cl)c3)cc1-c1ccccc1)CC2` [Example 7.02.145], the EC50 came to 0.015 µM. With `COc1cccc(C2CCN(C(=O)Cn3nc(-c4ccc(F)c(C)c4)cc3-c3ccccc3)CC2)c1` [Example 7.02.146], the EC50 was found to be 0.295 µM.

For `CCc1cc(-c2ccc(F)c(C)c2)nn1CC(=O)N1CCC(c2cccc(OC)c2)CC1` [Example 7.02.147], the EC50 is 0.572 µM.

As to `COc1cc(-c2cc(-c3ccccc3)n(CC(=O)N3CCc4nc(C)sc4CC3)n2)ccc1F` [Example 7.02.148], the EC50 stood at 0.015 µM.

As to `COc1cc(-c2cc(-c3ccccc3)n(CC(=O)N3CCc4nc(N)sc4CC3)n2)ccc1F` [Example 7.02.149], the EC50 came out at 0.042 µM. In the case of `COc1cc(-c2cc(-c3ccccc3)n(CC(=O)N3Cc4nc(C)sc4C3)n2)ccc1F` [Example 7.02.150], the concentration for a half-maximal effect (EC50) worked out at 0.028 µM. In the case of `COc1cc(-c2cc(-c3ccccc3)n(CC(=O)N3CCC(c4nnc(C)o4)CC3)n2)ccc1F` [Example 7.02.151], the EC50 came to 0.211 µM. On to `COc1cc(-c2cc(-c3ccccc3)n(CC(=O)N3CCC(c4ncc(C)o4)CC3)n2)ccc1F` [Example 7.02.152], for which the EC50 came out at 0.067 µM. Next, `COc1cc(-c2cc(-c3ccccc3)n(CC(=O)N3CC=C(c4ncc(C)o4)CC3)n2)ccc1F` [Example 7.02.153]: 0.015 µM; `Cc1nc(N2CCN(C(=O)Cn3nc(-c4ccc(F)c(C)c4)cc3C)CC2)no1` [Example 7.02.154]: 0.108 µM; `Cc1nc2c(o1)CN(C(=O)Cn1nc(-c3ccc(F)c(C)c3)cc1C)C2` [Example 7.02.155]: 0.092 µM. Next, `Cc1cc(-c2cc(-c3ccccc3)n(CC(=O)N3CCc4nc(N)sc4CC3)n2)ncc1F` [Example 7.02.156]: 0.17 µM; `CCc1cc(-c2ccc(F)c(C)c2)nn1CC(=O)N1CCC(c2nnc(C)o2)CC1` [Example 7.02.157]: 0.43 µM.

In the case of `Cc1csc(N2CCN(C(=O)Cn3nc(-c4ccc(F)c(C)c4)cc3-c3ccccc3)CC2)n1` [Example 7.02.158], the EC50 came out at 0.116 µM.

`Cc1csc(N2CCN(C(=O)Cn3nc(-c4ccc(F)c(C)c4)cc3-c3ccccc3)CC2)n1` [Example 7.02.159]: the concentration giving a half-maximal response (EC50) was found to be 0.044 µM. Take `CCc1nnc(N2CCN(C(=O)Cn3nc(-c4ccc(F)c(C)c4)cc3-c3ccccc3)CC2)o1` [Example 7.02.160]: the EC50 stood at 0.023 µM. For the molecule `COc1nc2c(s1)CCN(C(=O)Cn1nc(-c3ccc(F)c(C)c3)cc1-c1ccccc1)CC2` [Example 7.02.161], the EC50 stood at 0.035 µM. Next, `CCc1cc(-c2ccc(F)c(C)c2)nn1CC(=O)N1CCN(c2nnc(C(F)(F)F)s2)CC1` [Example 7.02.162]: 0.12 µM; `CCc1nnc(N2CCN(C(=O)Cn3nc(-c4ccc(F)c(C)c4)cc3CC)CC2)o1` [Example 7.02.163]: 0.122 µM.

As for `CCc1cc(-c2ccc(F)c(C)c2)nn1CC(=O)N1CCc2nc(OC)sc2CC1` [Example 7.02.164], the half-maximal effective concentration (EC50) came out at 0.046 µM. Next, `Cc1coc(N2CCN(C(=O)Cn3nc(-c4ccc(F)c(C)c4)cc3-c3ccccc3)CC2)n1` [Example 7.02.165]: 0.018 µM. Regarding `CCCc1cc(-c2ccc(F)c(C)c2)nn1CC(=O)N1CCN(c2nc(C)co2)CC1` [Example 7.02.166], the EC50 is 0.149 µM. As for `CCc1cc(-c2ccc(F)c(C)c2)nn1CC(=O)N1CCN(c2nc(C)co2)CC1` [Example 7.02.167], the concentration for a half-maximal effect (EC50) stood at 0.37 µM. In the case of `Cc1coc(N2CCN(C(=O)Cn3nc(-c4ccc(F)c(C)c4)cc3C)CC2)n1` [Example 7.02.168], the EC50 turned out to be 0.604 µM.

Regarding `Cc1noc(N2CCN(C(=O)Cn3nc(-c4ccc(F)c(C)c4)cc3-c3ccccc3)CC2)n1` [Example 7.02.169], the EC50 stood at 0.02 µM.
